Laboratory results as given in ChEMBL document CHEMBL1201862, “PubChem BioAssay data set” (2004).
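Compound exposure: 48 hours, 5 concentrations, 96-well plates. Here, GI50 denotes the concentration required for 50% inhibition of growth.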 Activity calls are given as the source filed them. Rule as the data show it: active = GI50 up to about 1.1 µM and inactive = higher.

Columns and labels:
Assay in all cases: inhibition of tumour cell growth, NCI panel, 48 h
[1] = tested on: MDA-N
[2] = tested on: COLO 205
[3] = tested on: OVCAR-8
[4] = tested on: TK-10
[5] = tested on: M14
[6] = tested on: HT-29
[7] = tested on: Malme-3M
[8] = tested on: SR
[9] = tested on: A549
[10] = tested on: SK-OV-3
[11] = tested on: ACHN
[12] = tested on: PC-3
[13] = tested on: KM12
[14] = tested on: SNB-75
[15] = tested on: DU-145
[16] = tested on: MDA-MB-435
[17] = tested on: SN12C
[18] = tested on: SF-268
[19] = tested on: MDA-MB-231
[20] = tested on: T47D
[21] = tested on: MOLT-4
[22] = tested on: NCI-H522
[23] = tested on: MCF7
[24] = tested on: NCI-H460
[25] = tested on: HOP-92
[26] = tested on: HCT-15
[27] = tested on: LOX IMVI
[28] = tested on: U-251
[29] = tested on: HL-60
[30] = tested on: SK-MEL-28
[31] = tested on: OVCAR-3
[32] = tested on: HOP-62
[33] = tested on: NCI-H23
[34] = tested on: SF-295
[35] = tested on: CAKI-1
[36] = tested on: BT-549
[37] = tested on: RPMI-8226
[38] = tested on: SW-620
[39] = tested on: UACC-257
[40] = tested on: SNB-19
[41] = tested on: 786-0
[42] = tested on: NCI-H226
[43] = tested on: HCT-116
[44] = tested on: OVCAR-4
[45] = tested on: SK-MEL-5
[46] = tested on: SF-539
[47] = tested on: EKVX
[48] = tested on: IGROV-1
[49] = tested on: UACC-62
[50] = tested on: Hs-578T
[51] = tested on: CCRF-CEM
[52] = tested on: HCC 2998
[53] = tested on: SK-MEL-2
[54] = tested on: NCI/ADR-RES
[55] = tested on: OVCAR-5
[56] = tested on: A498
[57] = tested on: UO-31
[58] = tested on: RXF 393
[59] = tested on: K562

CSc1ncnc2c1ncn2C1CC(Oc2ccc(C)cc2)C(COc2ccc(C)cc2)O1 (configuration not stated)
GI50 [1]: > 100 µM (inactive) | GI50 [2]: > 100 µM (inactive) | GI50 [3]: > 100 µM (inactive) | GI50 [4]: > 100 µM (inactive) | GI50 [5]: > 100 µM (inactive) | GI50 [6]: > 100 µM (inactive) | GI50 [7]: > 100 µM (inactive) | GI50 [8]: 76.6 µM (inactive) | GI50 [9]: > 100 µM (inactive) | GI50 [10]: > 100 µM (inactive) | GI50 [11]: > 100 µM (inactive) | GI50 [12]: > 100 µM (inactive) | GI50 [13]: > 100 µM (inactive) | GI50 [14]: > 100 µM (inactive) | GI50 [15]: > 100 µM (inactive) | GI50 [16]: > 100 µM (inactive) | GI50 [17]: > 100 µM (inactive) | GI50 [18]: > 100 µM (inactive) | GI50 [19]: > 100 µM (inactive) | GI50 [20]: 16.6 µM (inactive) | GI50 [21]: 6.1 µM (inactive) | GI50 [22]: > 100 µM (inactive) | GI50 [23]: > 100 µM (inactive) | GI50 [24]: > 100 µM (inactive) | GI50 [25]: > 100 µM (inactive) | GI50 [26]: > 100 µM | GI50 [27]: > 100 µM (inactive) | GI50 [28]: > 100 µM (inactive) | GI50 [29]: > 100 µM (inactive) | GI50 [30]: > 100 µM (inactive) | GI50 [31]: > 100 µM (inactive) | GI50 [32]: > 100 µM (inactive) | GI50 [33]: 49.4 µM (inactive) | GI50 [34]: > 100 µM (inactive) | GI50 [35]: 24.7 µM (inactive) | GI50 [36]: > 100 µM (inactive) | GI50 [37]: 9.66 µM (inactive) | GI50 [38]: > 100 µM (inactive) | GI50 [39]: > 100 µM (inactive) | GI50 [40]: > 100 µM (inactive) | GI50 [41]: > 100 µM (inactive) | GI50 [42]: > 100 µM (inactive) | GI50 [43]: > 100 µM (inactive) | GI50 [44]: > 100 µM (inactive) | GI50 [45]: 52.2 µM (inactive) | GI50 [46]: > 100 µM (inactive) | GI50 [47]: > 100 µM (inactive) | GI50 [48]: > 100 µM (inactive) | GI50 [49]: > 100 µM (inactive) | GI50 [50]: > 100 µM (inactive) | GI50 [51]: > 100 µM (inactive) | GI50 [52]: > 100 µM (inactive) | GI50 [53]: > 100 µM (inactive) | GI50 [54]: > 100 µM (inactive) | GI50 [55]: > 100 µM (inactive) | GI50 [56]: > 100 µM (inactive)

COc1ccc(C2=C(N)c3ccccc3C2=O)cc1
GI50 [1]: > 100 µM (inactive) | GI50 [2]: > 100 µM (inactive) | GI50 [3]: 37.8 µM (inactive) | GI50 [4]: 45.1 µM (inactive) | GI50 [5]: > 100 µM (inactive) | GI50 [6]: > 100 µM (inactive) | GI50 [7]: > 100 µM (inactive) | GI50 [8]: > 100 µM (inactive) | GI50 [9]: > 100 µM (inactive) | GI50 [10]: 43 µM (inactive) | GI50 [11]: 63.2 µM (inactive) | GI50 [12]: > 100 µM (inactive) | GI50 [13]: > 100 µM (inactive) | GI50 [14]: 27.7 µM (inactive) | GI50 [15]: > 100 µM (inactive) | GI50 [16]: > 100 µM (inactive) | GI50 [17]: > 100 µM (inactive) | GI50 [18]: 33.7 µM (inactive) | GI50 [19]: 32.5 µM (inactive) | GI50 [20]: > 100 µM (inactive) | GI50 [21]: > 100 µM (inactive) | GI50 [22]: 69 µM (inactive) | GI50 [23]: > 100 µM (inactive) | GI50 [24]: > 100 µM (inactive) | GI50 [25]: 27.9 µM (inactive) | GI50 [26]: > 100 µM | GI50 [27]: > 100 µM (inactive) | GI50 [28]: 33.9 µM (inactive) | GI50 [29]: > 100 µM (inactive) | GI50 [30]: > 100 µM (inactive) | GI50 [31]: > 100 µM (inactive) | GI50 [32]: 31.2 µM (inactive) | GI50 [33]: 39.5 µM (inactive) | GI50 [34]: 37.3 µM (inactive) | GI50 [35]: > 100 µM (inactive) | GI50 [36]: 48.6 µM (inactive) | GI50 [37]: > 100 µM (inactive) | GI50 [38]: > 100 µM (inactive) | GI50 [39]: > 100 µM (inactive) | GI50 [40]: 25.7 µM (inactive) | GI50 [41]: 52.1 µM (inactive) | GI50 [42]: 45.6 µM (inactive) | GI50 [43]: 87.5 µM (inactive) | GI50 [44]: 96.4 µM (inactive) | GI50 [45]: > 100 µM (inactive) | GI50 [46]: 40.9 µM (inactive) | GI50 [47]: > 100 µM (inactive) | GI50 [48]: 89.7 µM (inactive) | GI50 [49]: > 100 µM (inactive) | GI50 [50]: 27.5 µM (inactive) | GI50 [51]: > 100 µM (inactive) | GI50 [52]: > 100 µM (inactive) | GI50 [53]: > 100 µM (inactive) | GI50 [54]: 42.4 µM (inactive) | GI50 [55]: > 100 µM (inactive) | GI50 [56]: 81.8 µM (inactive)

c1ccc2c(c1)nc1n2CNC1
GI50 [1]: > 100 µM (inactive) | GI50 [2]: > 100 µM (inactive) | GI50 [4]: > 100 µM (inactive) | GI50 [5]: > 100 µM (inactive) | GI50 [6]: > 100 µM (inactive) | GI50 [57]: > 100 µM (inactive) | GI50 [8]: > 100 µM (inactive) | GI50 [9]: > 100 µM (inactive) | GI50 [10]: > 100 µM (inactive) | GI50 [11]: > 100 µM (inactive) | GI50 [12]: > 100 µM (inactive) | GI50 [13]: > 100 µM (inactive) | GI50 [14]: > 100 µM (inactive) | GI50 [15]: > 100 µM (inactive) | GI50 [16]: > 100 µM (inactive) | GI50 [17]: > 100 µM (inactive) | GI50 [18]: > 100 µM (inactive) | GI50 [19]: > 100 µM (inactive) | GI50 [20]: > 100 µM (inactive) | GI50 [21]: > 100 µM (inactive) | GI50 [23]: > 100 µM (inactive) | GI50 [24]: 54.6 µM (inactive) | GI50 [25]: > 100 µM (inactive) | GI50 [26]: > 100 µM | GI50 [58]: > 100 µM (inactive) | GI50 [27]: > 100 µM (inactive) | GI50 [28]: > 100 µM (inactive) | GI50 [29]: > 100 µM (inactive) | GI50 [30]: > 100 µM (inactive) | GI50 [31]: > 100 µM (inactive) | GI50 [32]: > 100 µM (inactive) | GI50 [33]: > 100 µM (inactive) | GI50 [34]: > 100 µM (inactive) | GI50 [35]: > 100 µM (inactive) | GI50 [36]: > 100 µM (inactive) | GI50 [37]: > 100 µM (inactive) | GI50 [38]: > 100 µM (inactive) | GI50 [39]: > 100 µM (inactive) | GI50 [40]: > 100 µM (inactive) | GI50 [41]: > 100 µM (inactive) | GI50 [43]: > 100 µM (inactive) | GI50 [44]: > 100 µM (inactive) | GI50 [45]: > 100 µM (inactive) | GI50 [46]: > 100 µM (inactive) | GI50 [59]: > 100 µM (inactive) | GI50 [47]: > 100 µM (inactive) | GI50 [48]: > 100 µM (inactive) | GI50 [49]: > 100 µM (inactive) | GI50 [50]: > 100 µM (inactive) | GI50 [51]: > 100 µM (inactive) | GI50 [52]: > 100 µM (inactive) | GI50 [53]: > 100 µM (inactive) | GI50 [54]: > 100 µM (inactive) | GI50 [55]: > 100 µM (inactive) | GI50 [56]: > 100 µM (inactive)
